Results on one compound are retold here after US10053485B2, “Cytotoxic agents that preferentially target leukemia inhibitory factor (LIF) for the treatment of malignancies and as new contraceptive agents” (Evestra, Inc., priority 2015, dated 2018).

By GI50 is commonly meant the concentration that inhibits growth by half. As usually defined, the IC50 is the concentration at which inhibition is half-maximal.

For one test, the system named is HS 578T. Description: NCI-60 screen, Breast Cancer panel. The format is cell-based. To be noted: Homo sapiens, 48 h.
Test [1] relates to unmodified MCF-7 human breast cancer cells. Description: LIF specificity assay, unmodified cells. The format is cell-based. Particulars: Homo sapiens, MCF7, cytotoxicity.
Another test has as its system NCI-H226. Description: NCI-60 screen, Non-Small Cell Lung Cancer panel. The format is cell-based. To be noted: Homo sapiens, NCI-H226, 48 h, read-out: GI50 (log10GI50) (converted).
Test [2] deals with Ishikawa (Endometrial Cancer). The test can be described thus: Short term (72 h) cytotoxicity assay. The format is cell-based. Particulars: Homo sapiens.
For the next test, the system named is EKVX. The test can be described thus: NCI-60 screen, Non-Small Cell Lung Cancer panel. The format is cell-based. To be noted: Homo sapiens, 48 h, read-out: GI50 (log10GI50) (converted).
For another test, the system named is U251. Description: NCI-60 screen, CNS Cancer panel. The format is cell-based. To be noted: Homo sapiens, U-251, 48 h.
Test [3] deals with MDM2 / P53 in MCF-7 cells. Description: P53 / MDM2 levels in MCF-7 cells (FIG. 5). The format is cell-based, human.
Another test deals with SF-539. The test can be described thus: NCI-60 screen, CNS Cancer panel. The format is cell-based. Particulars: Homo sapiens, SF-539, 48 h.
For test [4], the system named is IGROV-1 (Ovarian cancer cells). The test can be described thus: Short term (72 h) cytotoxicity assay. The format is cell-based. To be noted: Homo sapiens; IGROV-1, 72 h cytotoxicity.
Test [5] relates to Patient derived tumor (melanoma): p53, LIF, MDM2, pSTAT3, Ki67. Description: Immunohistochemistry analysis of patient derived tumor. The format is cell-based, human. Particulars: 10 nM and 1 uM for 5 days, FIG. 10. As to the method: Patient derived tumor (melanoma) was treated with the compounds at 10 nM and 1 uM for 5 days in RPMI medium and harvested on day 6 using established protocol and immunohistochemistry was performed for different antibodies including p53, LIF, MDM2, pSTAT3, Ki67.

Another test deals with NCI-H332M. Description: NCI-60 screen, Non-Small Cell Lung Cancer panel. Particulars: Homo sapiens, 48 h. The format is cell-based.
A further test concerns NCI-H460. Description: NCI-60 screen, Non-Small Cell Lung Cancer panel. The format is cell-based. Particulars: Homo sapiens, NCI-H460, 48 h.
Setting [6] is: read-out: GI50 (log10GI50) (converted).
Setting [7] is: read-out: LC50 (log10LC50) (converted).

`C#CC(F)(F)[C@]1(O)CCC2C3CCC4=CC(=O)CCC4=C3C(c3ccc(C4CC4)cc3)C[C@@]21C` (stereo partly drawn) [EC330, 17α-(1,1-difluoro-2-propyn-1-yl)-17β-hydroxy-11β-[4-p-(cyclopropyl)phenyl]estra-4,9-dien-3-one]: the concentration for 50% growth inhibition (GI50) was 2.29 µM with HS 578T (setting [6]); 2.63 µM in the test on NCI-H226; less than 0.01 µM with EKVX; 0.151 µM in the test on U251 (setting [6]); less than 0.01 µM with SF-539 (setting [6]); 3.8 µM with NCI-H332M (setting [6]). In the test with NCI-H460 (setting [6]), the GI50 was 2.69 µM. The CC50 in the test with HS 578T (setting [7]) was greater than 100 µM; in the test with U251 (setting [7]), 5.37 µM; in the test with SF-539 (setting [7]), 0.0525 µM; with NCI-H332M (setting [7]), greater than 100 µM; in the test with NCI-H460 (setting [7]), greater than 100 µM. Moreover, the values for the concentration for half-maximal inhibition (IC50) in test [1], in test [2] and in test [4] were 0.25 µM, 0.005 µM and 0.035 µM, respectively. Also, the “P53 levels / MDM2” value in [3] is on record as “restore P53 levels by inhibiting MDM2”. In test [5], the “apoptosis, p53, MDM2, LIF mediated STAT3 phosphorylation (immunohistochemistry)” value is “induce apoptosis and restore p53 by inhibiting MDM2 and LIF mediated STAT3 phosphorylation”.
